Like-named read-outs stand apart in the source and are kept apart here.
Assays:
[1] = tested on: human malignant glioblastoma cell U87MG xenograft; assay: Test V: human malignant glioblastoma U87MG xenograft in nude mice; assay type: in vivo
Description: U87-MG cells were expanded by in vitro culture, cells at log phase were harvested and resuspended in EMEM, adjusted to a cell density of 2.8×10^7/mL, then implanted subcutaneously in the right axilla of nude mice.
During the trial, tumor diameters and animal weights were measured twice a week. Tumor Volume (TV) was calculated by the following equation: TV=1/2×a×b^2, wherein a, b represent length and width, respectively. Based on the measurement, Relative Tumor Volume (RTV) was calculated by the following equation: RTV=Vt/V0, wherein V0 is the tumor volume measured when divided for administration (i.e., d0), Vt is the tumor volume measured at each timepoint.

[2] = target: T1, c-Met kinase domain recombinant protein (Homo sapiens, UniProt P08581); assay: biochemical; conditions: read-out: Inhibition rate at 10 μM (%)
T1 construct: 50 μL diluted solution of c-Met kinase domain recombinant protein in reaction buffer was added to initiate the reaction
T1 sequence (P08581 1078-1345 limits assumed): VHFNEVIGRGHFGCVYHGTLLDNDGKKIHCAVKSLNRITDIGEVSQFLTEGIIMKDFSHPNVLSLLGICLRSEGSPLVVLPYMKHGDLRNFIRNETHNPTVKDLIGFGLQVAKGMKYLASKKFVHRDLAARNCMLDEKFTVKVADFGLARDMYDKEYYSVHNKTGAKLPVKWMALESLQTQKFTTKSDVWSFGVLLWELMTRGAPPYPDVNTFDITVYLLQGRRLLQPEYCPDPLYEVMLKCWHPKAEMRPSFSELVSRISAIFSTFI
Summary of the method: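 ELISA on plates coated with Poly(Glu,Tyr)4:1 (20 μg/mL), kinase reaction with c-Met kinase domain and ATP in HEPES pH 7.4 buffer with MgCl2, MnCl2, Na3VO4 and DTT, 1 h at 37 °C. Phosphotyrosine detected with PY99 and HRP secondary antibody, read at 490 nm; inhibition rate calculated against ATP-free control.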

BaF3/TPR-Met cell = assay: Test III: growth inhibition of engineered BaF3/TPR-Met cells (MTT); assay type: cell-based; conditions: Mus musculus, BaF3, 72 h
Description: Assays on the growth inhibition of the compounds against engineered BaF3/TPR-Met cell (engineered cell line having TPR-Met fusion protein stably expressed in cytoplasm, persistently activated, Met dependent sensitive cell line; BaF3 cell was purchased from DSMZ, German) were detected using microculture tetrozolium (MTT) staining. A certain amount of BaF3/TPR-Met cells at log phase were inoculated into 96-well culture plate at 90 µL per well, incubated overnight and then 10 μL compound at various concentrations or vehicle control (normal saline) was added, each concentration was tested in triplicate. After incubation with compound for 72 hours, the incubation was terminated, MTT solution (5 mg/mL) was added at 20 μL per well, incubated at 37° C. for 4 hours, then 100 μL triplet solution (10% SDS−5% isobutanol−0.01M HCl) was added, incubated overnight at 37° C., OD value was measured at 570 nm. […] Experiments were conducted in duplicates.

[3] = target: T1, c-Met kinase domain recombinant protein; assay: biochemical
Summary of the method: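 ELISA on plates coated with Poly(Glu,Tyr)4:1 (20 μg/mL coating solution). Recombinant c-Met kinase domain reacted with 5 μM ATP in HEPES pH 7.4 with Mg/Mn, vanadate and DTT for 1 hour at 37° C. Phosphotyrosine was detected with PY99 and HRP secondary antibody, read at 490 nm, and IC50 was taken from a four-parameter fit.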

[4] = 50 mg/kg po qd/14, end of administration

Cn1cc(-c2cnc3cnn(S(=O)(=O)c4cnc5ccccn45)c3c2)cn1 [Compound 19, 1-(imidazo[1,2-a]pyridine-3-sulfonyl)-6-[(1-methyl)-4-pyrazolyl]-1-H-pyrazolo[4,3-b]pyridine]
state and survival of mice during the administration period ([1]; 50 mg/kg daily for 14 days): in good state and were survived
antitumor activity (in words) ([1]; 50 mg/kg daily, d14): favorable antitumor activity
RTV (mean ± SE) [1, 4]: 77.0 ± 5.2
TV (mm^3, mean ± SE) d21 [1, 4]: 140 ± 20 mm^3
Weight (g) d21 [1, 4]: 24.5 g
GI (%) ([1]; 50 mg/kg po qd/14, end of the trial): 102.41%
T/C (%) ([1]; 50 mg/kg po qd/14, end of the trial (d14)): 7.29%
inhibition at 10 µM [2]: 59.3%
inhibition at 0.2 µM (BaF3/TPR-Met cell; read-out: Cell proliferation inhibition rate at 200 nM (%)): 91.8%
inhibition at 1 µM (BaF3/TPR-Met cell; read-out: Cell proliferation inhibition rate at 1 μM (%)): 95.6%
IC50 [3]: 7.8 ± 0.8 nM
inhibition at 0.1 µM ([3]; read-out: Average inhibition rate at 0.1 μM (%)): 59.2%
inhibition at 1 µM ([3]; read-out: Average inhibition rate at 1 μM (%)): 53.5%
inhibition at 10 µM ([3]; read-out: Average inhibition rate at 10 μM (%)): 59.3%

— US9988381B2, “Five-member-heterocycle fused pyridine compounds, method of producing the same, and use thereof” (SHANGHAI INSTITUTE OF MATERIA MEDICA, CHINESE ACADEMY OF …, priority 2013, dated 2018)
